Laboratory results taken from article PMC11279807, “Modulation of the Antimelanoma Activity Imparted to Artemisinin Hybrids by the Monoterpene Counterpart” (Molecules, 2024).
Like-named read-outs stand apart in the source and are kept apart here.

What was measured:
[1] = test system: C3PV; assay: MTT cell viability assay on normal fibroblasts C3PV; type: cell-based, human; conditions: 24 h treatment, triplicates, read-out: IC50 (µM ± SD) C3PV
Procedure: (§1) The primary human healthy fibroblast C3PV cell line was grown in a culture medium containing 50% Dulbecco Modified Medium (DMEM) and 50% Ham’s F10 supplemented with 10% Fetal Bovine Serum (FBS). […] To all growing media were added 1% Pen/Strep and 1% Glutamine.
To study the effect of artemisinin derivatives on cell viability, MTT assay was performed. Briefly, C3PV, WM115, and WM266 cell lines were seeded in 96-well plates (3000 cells/well in 100 μL of medium) 24 h before treatment and incubated overnight to allow for cell adherence. […] The analyses of cell viability were performed at the end of the treatment. Triplicates were made in all experiments. After 24 h of treatment with newly synthesized compounds, the culture medium was replaced with a solution containing 0.5 mg/mL of MTT. After 3 h of incubation in an incubator, the medium was removed, and a lysis solution (10% SDS, 0.6% acetic acid in DMSO) was added to dissolve the formazan crystals. Optical density measurements were performed with a microplate reader EPOCH/2 (Biotek) with 630 nm (background) and a 570 nm filters.
(§2) The IC50 values were determined via non-linear regression, using the GraphPad Prism software package version 8 (GraphPad Software, San Diego, CA, USA). Results were expressed as means of IC50 values ± SD. The TSI values were calculated using the following formula: […]

[2] = test system: WM115; assay: MTT cell viability assay on primary melanoma cell line WM115; type: cell-based, human; conditions: for IC50: primary melanoma WM115, MTT, 24 h treatment, triplicates, read-out: IC50 (µM ± SD) WM115; for TSI WM115: tumor selectivity index = IC50 on C3PV / IC50 on WM115
Procedure: as §1
(§3) To study the effect of artemisinin derivatives on cell viability, MTT assay was performed. Briefly, C3PV, WM115, and WM266 cell lines were seeded in 96-well plates (3000 cells/well in 100 μL of medium) 24 h before treatment and incubated overnight to allow for cell adherence. Afterward, the medium was replaced with a fresh one containing the appropriate dose of newly synthesized compounds (doses ranging from 0.01 to 1 μM were used for 24 h). The analyses of cell viability were performed at the end of the treatment. Triplicates were made in all experiments. After 24 h of treatment with newly synthesized compounds, the culture medium was replaced with a solution containing 0.5 mg/mL of MTT. After 3 h of incubation in an incubator, the medium was removed, and a lysis solution (10% SDS, 0.6% acetic acid in DMSO) was added to dissolve the formazan crystals. Optical density measurements were performed with a microplate reader EPOCH/2 (Biotek) with 630 nm (background) and a 570 nm filters.
as §2

[3] = test system: WM266; assay: MTT cell viability assay on metastatic melanoma cell line WM266; type: cell-based, human; conditions: for IC50: Homo sapiens; for TSI WM266: tumor selectivity index = IC50 on C3PV / IC50 on WM266
Procedure: as §1, §3, §2

[4] = test system: WM266; assay: Cell viability assay in the presence or absence of DFO on WM266; type: cell-based; conditions: Homo sapiens, treatment time 48 h
Source text: To obtain information about the mode of action of compounds 9c, 9f, 10b, and 10f, we repeated the cell viability assays on the metastatic cancer line WM266 in the presence of the Fe^2+ chelating agent deferoxamine (DFO). As mentioned above, Fe^2+ ions trigger endoperoxide bridge opening of the sesquiterpene counterpart by Fenton-like mechanisms, leading to the formation of carbon- and oxygen-centered radicals. Usually, this in cell formation of single-electron reactive species seems to be responsible for the biological activity of ART and its semisynthetic and hybrid derivatives. Sequestration of Fe^2 by DFO generally reduces the efficacy of the compounds studied.
DFO was used to study the mode of action of compounds 9c, 9f, 10b, and 10f on WM266 cell line. Twenty-four hours before treatment, cells were seeded in 96-well plates and incubated overnight. Then, cells were pre-treated with 20 μM of DFO for 1 h. After this time, two washes with PBS were performed, and, subsequently, fresh medium containing different doses of the opportune compound was added for 48h. The analyses of cell viability were performed at the end of treatment, and triplicates were made in all experiments.

[5] = Stability by NMR analyses after heating; type: physicochemical; conditions: after heating at 45 and 100 °C for 8 and 2 h, respectively
Procedure: Based on cellular results, hybrids 9c, 9f, 10b, and 10f were selected for further studies. Their stability was evaluated by NMR analyses after heating them at 45 and 100 °C for 8 and 2 h, respectively (Supplementary Materials S1).

[6] = test system: melanoma; conditions: metastatic melanoma drug; cited from earlier work
[7] = WM266, 24 h, metastatic melanoma WM266, MTT, 24 h treatment, triplicates, read-out: IC50 (µM ± SD) WM266
[8] = WM266, reference hybrid on WM266, as printed in Table 2, read-out: IC50 ± SD R.H.
[9] = WM266, pre-treated with 20 μM DFO for 1 h, read-out: IC50 ± SD WM266 with DFO
[10] = WM266, without DFO, read-out: IC50 ± SD WM266 without DFO

| SMILES | IC50 ([1]; Homo sapiens, C3PV, 24 h) [µM] | IC50 ([2]; Homo sapiens, WM-115, 24 h) [µM] | TSI WM115 [2] | IC50 [3, 7] [µM] | IC50 [3, 8] [µM] | TSI WM266 [3] | IC50 [4, 9] [nM] | IC50 [4, 10] [nM] | decomposition by 1H NMR [5] | IC50 [1] [µM] | IC50 [2] [µM] | IC50 [6] [nM] |
| --- | --- | --- | --- | --- | --- | --- | --- | --- | --- | --- | --- | --- |
| CC(C)=CCCC(C)=CCOC1OC2OC3(C)CCC4C(C)CCC(C1C)C24OO3 (stereo not drawn) [Hybrid 9f] | 87.3 ± 2.5 | 3 ± 0.4 | 29.1 | 1.9 ± 0.5 | 1.9 ± 0.5 | 45.9 | 132700 ± 400 | 1900 ± 500 | less than 5% |  |  |  |
| C=C(C)C1CC=C(COC(=O)CCC(=O)OC2OC3OC4(C)CCC5C(C)CCC(C2C)C35OO4)CC1 (stereo not drawn) [Hybrid 10b] | 20.3 ± 5.5 | 0.03 ± 0.01 | 676.7 | 0.02 ± 0.01 | 0.02 ± 0.01 | 1015.0 | 310 ± 100 | 20 ± 10 | less than 5% |  |  |  |
| CC(C)=CCCC(C)=CCOC(=O)CCC(=O)OC1OC2OC3(C)CCC4C(C)CCC(C1C)C24OO3 (stereo not drawn) [Hybrid 10f] |  |  | 19.8 |  | 0.09 ± 0.03 | 87.8 | 500 ± 100 | 90 ± 30 | less than 5% | 7.9 ± 4.5 | 0.4 ± 0.04 |  |
| Cn1nnc2c(C(N)=O)ncn2c1=O [temozolomide] |  |  |  |  |  |  |  |  |  |  |  | < 50000 |
